Measurements: patent US12365651B2, “Use of pirfenidone and derivatives for modulation of B lymphocyte activity and organ protection from acute tissue damage” (Washington University, priority 2017, dated 2025)
Where “and” joins values, the source holds several entries; their conditions need not be identical. Equal values may be shown once. Read-outs that look alike come from different tables or passages of the source.

Columns and labels:
[1] = system: CD19+CD11b+ and CD19+CD11b− cardiac lymphocytes; assay: Transcriptional profiling (RNAseq, KEGG) of sorted cardiac B lymphocytes; type: in vivo, mouse; settings: DTR+PFD hearts vs naïve
Source text: To gain insight into the mechanism(s) responsible for the immunomodulatory effects of Pirfenidone, we performed transcriptional profiling on CD19+CD11b+ and CD19+CD11b− cardiac lymphocytes that were FACS sorted from naïve, DT-injured mice fed normal chow, and DT-injured mice treated with Pirfenidone chow. […]
We performed transcriptional profiling of cardiac lymphocytes that were isolated from naïve and DTR injured hearts in the presence and absence of Pirfenidone. […] Single-end, 50 bp reads were obtained on an Illumina HiSeq 3000 and aligned to the IIlumina iGenomes GRCm38_Ensembl release of the mouse transcriptome using Tophat2.1(41), yielding an average of 1.8×107 aligned reads per sample. Gene-level quantitation was performed using HTSeq 2(42). mRNAs were included in downstream analyses if present in all biological replicates in any of the 6 experimental groups (CD19+CD11b+ and CD19+CD11b− from WT, DT and DT+PFD) at an abundance of at least 1 read per million. […] KEGG pathways within the following 3 categories were analyzed: signal transduction (3.2), signaling molecules and interactions (3.3), and immune system (5.1).

[2] = Plasma pharmacokinetics after IV or PO administration; type: in vivo, SD Rat; settings: SD Rat
Protocol: Pirfenidone and Pegyonde-6 were administered at equimolar concentrations to rats IV or per os (PO) and serum concentrations measured at different time points to measure pharmacokinetic parameters. The drugs were solubilized in 5% Alcohol+20% PEG 300 in saline.

[3] = IV 40 mg/kg, individual rats 1-3, 40 mg/kg
[4] = PO 40 mg/kg, individual rats 7-9, 40 mg/kg

- AUMC0-t, Mean ([2]; IV 40 mg/kg): 11482 h*h*ng/mL
- AUMC0-∞, Mean ([2]; IV 40 mg/kg): 11490 h*h*ng/mL
- CL(/F), Mean ([2]; IV 40 mg/kg): 28.87 mL/min/kg
- Vss (/F), Mean ([2]; IV 40 mg/kg): 0.828 L/kg
- Plasma concentrations of Pirfenidone ([2]; IV 40 mg/kg, 0.083 h, individual rats 1-3, 40 mg/kg): 34700 ng/mL and 33600 ng/mL
- Plasma concentrations of Pirfenidone ([2]; IV 40 mg/kg, 0.25 h, individual rats 1-3, 40 mg/kg): 29300 ng/mL and 25600 ng/mL
- Plasma concentrations of Pirfenidone ([2]; IV 40 mg/kg, 0.5 h, individual rats 1-3, 40 mg/kg): 19800 ng/mL and 16100 ng/mL
- Plasma concentrations of Pirfenidone ([2]; IV 40 mg/kg, 1 h, individual rats 1-3, 40 mg/kg): 6130 ng/mL and 9860 ng/mL and 4840 ng/mL
- Plasma concentrations of Pirfenidone ([2]; IV 40 mg/kg, 2 h, individual rats 1-3, 40 mg/kg): 394 ng/mL and 712 ng/mL and 225 ng/mL
- Plasma concentrations of Pirfenidone ([2]; IV 40 mg/kg, 4 h, individual rats 1-3, 40 mg/kg): 6.12 ng/mL and 3.57 ng/mL
- AUC0-t [2, 3]: 27907 ng·h/mL and 21142 ng·h/mL
- AUC0-∞ [2, 3]: 27910 ng·h/mL and 21144 ng·h/mL
- Cmax [2, 3]: 34700 ng/mL and 33600 ng/mL
- MRTINF [2, 3]: 32.6 min and 25.6 min
- T1/2 [2, 3]: 17 min and 17.3 min
- Vss (/F) [2, 3]: 0.898 L/kg and 0.779 L/kg and 0.808 L/kg
- AUMC0-∞, Mean ([2]; PO 40 mg/kg): 15669 h*h*ng/mL
- Plasma concentrations of Pirfenidone ([2]; PO 40 mg/kg, 0.25 h, individual rats 7-9, 40 mg/kg): 8330 ng/mL and 9540 ng/mL
- Plasma concentrations of Pirfenidone ([2]; PO 40 mg/kg, 0.5 h, individual rats 7-9, 40 mg/kg): 6700 ng/mL and 8820 ng/mL
- Plasma concentrations of Pirfenidone ([2]; PO 40 mg/kg, 1 h, individual rats 7-9, 40 mg/kg): 3540 ng/mL and 3570 ng/mL
- Plasma concentrations of Pirfenidone ([2]; PO 40 mg/kg, 2 h, individual rats 7-9, 40 mg/kg): 2000 ng/mL and 2140 ng/mL
- Plasma concentrations of Pirfenidone ([2]; PO 40 mg/kg, 4 h, individual rats 7-9, 40 mg/kg): 7.72 ng/mL and 830 ng/mL and 126 ng/mL
- AUC0-t [2, 4]: 12787 ng·h/mL and 12172 ng·h/mL
- AUC0-∞ [2, 4]: 12820 ng·h/mL and 12353 ng·h/mL
- Cmax [2, 4]: 8330 ng/mL and 9540 ng/mL
- MRTINF [2, 4]: 98.64 min and 79.32 min
- T1/2 [2, 4]: 18.8 min and 57.5 min and 70.38 min
- Tmax ([2]; Sprague-Dawley, plasma, IV 40 mg/kg, read-out: Tmax, Mean): 4.98 min
- concentration at 0.083 h ([2]; Sprague-Dawley, rat, plasma, iv, 40 mg/kg, IV 40 mg/kg, 0.083 h, individual rats 1-3, read-out: Plasma concentrations of Pirfenidone): 32900 ng/mL
- concentration at 0.083 h ([2]; Sprague-Dawley, rat, plasma, iv, 40 mg/kg, IV 40 mg/kg, 0.083 h, read-out: Plasma concentrations of Pirfenidone, Mean): 33700 ng/mL
- concentration at 0.25 h ([2]; Sprague-Dawley, rat, plasma, iv, 40 mg/kg, IV 40 mg/kg, 0.25 h, individual rats 1-3, read-out: Plasma concentrations of Pirfenidone): 21400 ng/mL
- concentration at 0.25 h ([2]; Sprague-Dawley, rat, plasma, iv, 40 mg/kg, IV 40 mg/kg, 0.25 h, read-out: Plasma concentrations of Pirfenidone, Mean): 25400 ng/mL
- concentration at 0.5 h ([2]; Sprague-Dawley, rat, plasma, iv, 40 mg/kg, IV 40 mg/kg, 0.5 h, individual rats 1-3, read-out: Plasma concentrations of Pirfenidone): 15800 ng/mL
- concentration at 0.5 h ([2]; Sprague-Dawley, rat, plasma, iv, 40 mg/kg, IV 40 mg/kg, 0.5 h, read-out: Plasma concentrations of Pirfenidone, Mean): 17200 ng/mL
- concentration at 1 h ([2]; Sprague-Dawley, rat, plasma, iv, 40 mg/kg, IV 40 mg/kg, 1 h, read-out: Plasma concentrations of Pirfenidone, Mean): 6940 ng/mL
- concentration at 2 h ([2]; Sprague-Dawley, rat, plasma, iv, 40 mg/kg, IV 40 mg/kg, 2 h, read-out: Plasma concentrations of Pirfenidone, Mean): 444 ng/mL
- concentration at 4 h ([2]; Sprague-Dawley, rat, plasma, iv, 40 mg/kg, IV 40 mg/kg, 4 h, individual rats 1-3, read-out: Plasma concentrations of Pirfenidone): 4.27 ng/mL
- concentration at 4 h ([2]; Sprague-Dawley, rat, plasma, iv, 40 mg/kg, IV 40 mg/kg, 4 h, read-out: Plasma concentrations of Pirfenidone, Mean): 4.7 ng/mL
- concentration at 8 h ([2]; Sprague-Dawley, rat, plasma, iv, 40 mg/kg, IV 40 mg/kg, 8 h, individual rats 1-3, read-out: Plasma concentrations of Pirfenidone): 1.22 ng/mL
- concentration at 8 h ([2]; Sprague-Dawley, rat, plasma, iv, 40 mg/kg, IV 40 mg/kg, 8 h, read-out: Plasma concentrations of Pirfenidone, Mean): 1.22 ng/mL
- AUC0-t ([2]; Sprague-Dawley, rat, plasma, iv, 40 mg/kg, IV 40 mg/kg, read-out: AUC0-t, Mean): 23500 ng·h/mL
- AUC(0-inf) ([2]; Sprague-Dawley, rat, plasma, iv, 40 mg/kg, IV 40 mg/kg, read-out: AUC0-∞, Mean): 23500 ng·h/mL
- Cmax ([2]; Sprague-Dawley, rat, plasma, iv, 40 mg/kg, IV 40 mg/kg, read-out: Cmax, Mean): 33700 ng/mL
- MRT inf ([2]; Sprague-Dawley, rat, plasma, iv, 40 mg/kg, IV 40 mg/kg, read-out: MRTINF, Mean): 29 min
- half-life ([2]; Sprague-Dawley, rat, plasma, iv, 40 mg/kg, IV 40 mg/kg, read-out: T1/2, Mean (converted)): 21.4 min
- concentration at 0.25 h ([2]; Sprague-Dawley, rat, plasma, po, 40 mg/kg, PO 40 mg/kg, 0.25 h, individual rats 7-9, read-out: Plasma concentrations of Pirfenidone): 9130 ng/mL
- concentration at 0.25 h ([2]; Sprague-Dawley, rat, plasma, po, 40 mg/kg, PO 40 mg/kg, 0.25 h, read-out: Plasma concentrations of Pirfenidone, Mean): 9000 ng/mL
- concentration at 0.5 h ([2]; Sprague-Dawley, rat, plasma, po, 40 mg/kg, PO 40 mg/kg, 0.5 h, individual rats 7-9, read-out: Plasma concentrations of Pirfenidone): 8450 ng/mL
- concentration at 0.5 h ([2]; Sprague-Dawley, rat, plasma, po, 40 mg/kg, PO 40 mg/kg, 0.5 h, read-out: Plasma concentrations of Pirfenidone, Mean): 7990 ng/mL
- concentration at 1 h ([2]; Sprague-Dawley, rat, plasma, po, 40 mg/kg, PO 40 mg/kg, 1 h, individual rats 7-9, read-out: Plasma concentrations of Pirfenidone): 5110 ng/mL
- concentration at 1 h ([2]; Sprague-Dawley, rat, plasma, po, 40 mg/kg, PO 40 mg/kg, 1 h, read-out: Plasma concentrations of Pirfenidone, Mean): 4070 ng/mL
- concentration at 2 h ([2]; Sprague-Dawley, rat, plasma, po, 40 mg/kg, PO 40 mg/kg, 2 h, individual rats 7-9, read-out: Plasma concentrations of Pirfenidone): 1190 ng/mL
- concentration at 2 h ([2]; Sprague-Dawley, rat, plasma, po, 40 mg/kg, PO 40 mg/kg, 2 h, read-out: Plasma concentrations of Pirfenidone, Mean): 1780 ng/mL
- concentration at 4 h ([2]; Sprague-Dawley, rat, plasma, po, 40 mg/kg, PO 40 mg/kg, 4 h, read-out: Plasma concentrations of Pirfenidone, Mean): 321 ng/mL
- concentration at 8 h ([2]; Sprague-Dawley, rat, plasma, po, 40 mg/kg, PO 40 mg/kg, 8 h, read-out: Plasma concentrations of Pirfenidone, Mean): 65.3 ng/mL
- Cmax ([2]; Sprague-Dawley, rat, plasma, po, 40 mg/kg, PO 40 mg/kg, individual rats 7-9, read-out: Cmax): 9130 ng/mL
- MRT inf ([2]; Sprague-Dawley, rat, plasma, po, 40 mg/kg, PO 40 mg/kg, individual rats 7-9, read-out: MRTINF): 52 min
- AUC0-t ([2]; Sprague-Dawley, rat, serum, iv, 40 mg/kg, IV 40 mg/kg, individual rats 1-3, read-out: AUC0-t): 21400 ng·h/mL
- AUC(0-inf) ([2]; Sprague-Dawley, rat, serum, iv, 40 mg/kg, IV 40 mg/kg, individual rats 1-3, read-out: AUC0-∞): 21400 ng·h/mL
- Cmax ([2]; Sprague-Dawley, rat, serum, iv, 40 mg/kg, IV 40 mg/kg, individual rats 1-3, read-out: Cmax): 32900 ng/mL
- MRT inf ([2]; Sprague-Dawley, rat, serum, iv, 40 mg/kg, IV 40 mg/kg, individual rats 1-3, read-out: MRTINF): 28.8 min
- half-life ([2]; Sprague-Dawley, rat, serum, iv, 40 mg/kg, IV 40 mg/kg, individual rats 1-3, read-out: T1/2 (converted)): 30 min
- AUC0-t ([2]; Sprague-Dawley, rat, serum, po, 40 mg/kg, PO 40 mg/kg, individual rats 7-9, read-out: AUC0-t): 11100 ng·h/mL
- AUC(0-inf) ([2]; Sprague-Dawley, rat, serum, po, 40 mg/kg, PO 40 mg/kg, individual rats 7-9, read-out: AUC0-∞): 11100 ng·h/mL
- AUC0-t ([2]; Sprague-Dawley, rat, serum, po, 40 mg/kg, PO 40 mg/kg, read-out: AUC0-t, Mean): 12000 ng·h/mL
- AUC(0-inf) ([2]; Sprague-Dawley, rat, serum, po, 40 mg/kg, PO 40 mg/kg, read-out: AUC0-∞, Mean): 12100 ng·h/mL
- Cmax ([2]; Sprague-Dawley, rat, serum, po, 40 mg/kg, PO 40 mg/kg, read-out: Cmax, Mean): 9000 ng/mL
- MRT inf ([2]; Sprague-Dawley, rat, serum, po, 40 mg/kg, PO 40 mg/kg, read-out: MRTINF, Mean): 76.8 min
- half-life ([2]; Sprague-Dawley, rat, serum, po, 40 mg/kg, PO 40 mg/kg, read-out: T1/2, Mean (converted)): 48.9 min
- Tmax ([2]; Sprague-Dawley, serum, IV 40 mg/kg, individual rats 1-3, read-out: Tmax): 4.98 min
- bioavailability ([2]; Sprague-Dawley, serum, PO 40 mg/kg vs IV 40 mg/kg): 22.6%
- Tmax ([2]; Sprague-Dawley, serum, PO 40 mg/kg, read-out: Tmax, Mean): 15 min
Structure (SMILES): Cc1ccc(=O)n(-c2ccccc2)c1 [Pirfenidone, 5 methyl-1-phenyl-2-[H] pyridone]
- KEGG pathways enriched after DT injury in CD19+CD11b+ lymphocytes ([1]; 6 pathways): not activated
- KEGG pathways enriched after DT injury in CD19+CD11b− lymphocytes ([1]; with the exception of the hematopoietic cell lineage pathway): none of these pathways was significantly enriched
- Plasma concentrations of Pirfenidone ([2]; IV 40 mg/kg, 8 h, individual rats 1-3, 40 mg/kg): BLOQ (Below lower limit of quantification (1 ng/mL))
- Plasma concentrations of Pirfenidone ([2]; IV 40 mg/kg, 24 h, individual rats 1-3): BLOQ (Below lower limit of quantification (1 ng/mL))
- AUMC0-t [2, 3]: 10270 h*h*ng/mL and 15155 h*h*ng/mL and 9021 h*h*ng/mL
- AUMC0-∞ [2, 3]: 10277.2 h*h*ng/mL and 15166.3 h*h*ng/mL and 9027.6 h*h*ng/mL
- CL(/F) [2, 3]: 31.17 mL/min/kg and 23.88 mL/min/kg and 31.53 mL/min/kg
- Plasma concentrations of Pirfenidone ([2]; PO 40 mg/kg, 24 h, individual rats 7-9): BLOQ (Below lower limit of quantification (1 ng/mL))
- AUMC0-t [2, 4]: 9588 h*h*ng/mL and 20769 h*h*ng/mL and 14572 h*h*ng/mL
- AUMC0-∞ [2, 4]: 9604 h*h*ng/mL and 21076 h*h*ng/mL and 16326 h*h*ng/mL
